Results on 17 compounds are retold here after patent US9884839B2, “Inhibitors of 17Beta-hydroxysteroid dehydrogenases type 1 and type 2” (ElexoPharm GmbH, priority 2014, dated 2018).

Common to all, as to format: biochemical
For one test, the target named is T1, mouse 17β-HSD1 (Mus musculus, UniProt P51656).
T1 construct: made in house; host or cells: HEK293 cells, transient transfection; 1,000 g supernatant of the cell lysate
T1 sequence (P51656 1-344): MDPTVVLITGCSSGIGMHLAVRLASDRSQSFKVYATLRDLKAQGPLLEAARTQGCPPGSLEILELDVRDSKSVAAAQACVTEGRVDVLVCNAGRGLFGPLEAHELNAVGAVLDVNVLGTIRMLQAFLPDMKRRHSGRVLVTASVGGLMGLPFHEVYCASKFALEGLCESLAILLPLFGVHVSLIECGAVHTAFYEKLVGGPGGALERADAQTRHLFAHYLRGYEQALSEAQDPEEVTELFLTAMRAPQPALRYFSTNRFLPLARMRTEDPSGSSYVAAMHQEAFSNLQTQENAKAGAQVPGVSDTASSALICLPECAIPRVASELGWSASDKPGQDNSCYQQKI
As to the kind of experiment: Inhibition of mouse 17β-HSD1 (recombinant, HEK293 lysate).

In the next test the target is T2, human 17β-HSD2 (Homo sapiens, UniProt P37059).
T2 construct: 17β-HSD2 was obtained from the microsomal fraction; from tissue; host or cells: human placenta, microsomal fraction
T2 sequence (P37059 1-387): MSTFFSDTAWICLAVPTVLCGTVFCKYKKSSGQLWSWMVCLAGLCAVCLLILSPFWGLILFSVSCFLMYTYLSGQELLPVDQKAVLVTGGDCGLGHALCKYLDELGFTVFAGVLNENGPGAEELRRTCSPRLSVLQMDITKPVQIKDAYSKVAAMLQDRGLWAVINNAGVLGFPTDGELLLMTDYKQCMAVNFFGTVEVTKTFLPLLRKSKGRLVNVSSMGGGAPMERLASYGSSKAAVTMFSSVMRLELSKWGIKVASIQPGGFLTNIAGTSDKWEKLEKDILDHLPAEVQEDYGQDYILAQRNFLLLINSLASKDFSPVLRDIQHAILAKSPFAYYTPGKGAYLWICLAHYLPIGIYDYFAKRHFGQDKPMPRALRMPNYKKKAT
As to the kind of experiment: Inhibition of human 17β-HSD2 (conversion of [3H]-E2 to E1). The conditions noted are these: for IC50: read-out: IC50 [nM] h17β-HSD2; for inhibition at 1 µM: read-out: % inhibition h17β-HSD2 @ 1 μM; for inhibition at 0.01 µM: read-out: % inhibition h17β-HSD2 @ 10 nM.

Another test addresses T3, human 17β-HSD1 (Homo sapiens, UniProt P14061).
T3 construct: For the partial purification of 17β-HSD1, the cytosolic fraction was precipitated with ammonium sulfate; from tissue; host or cells: human placenta, cytosolic fraction, ammonium sulfate precipitate
T3 sequence (P14061 1-328): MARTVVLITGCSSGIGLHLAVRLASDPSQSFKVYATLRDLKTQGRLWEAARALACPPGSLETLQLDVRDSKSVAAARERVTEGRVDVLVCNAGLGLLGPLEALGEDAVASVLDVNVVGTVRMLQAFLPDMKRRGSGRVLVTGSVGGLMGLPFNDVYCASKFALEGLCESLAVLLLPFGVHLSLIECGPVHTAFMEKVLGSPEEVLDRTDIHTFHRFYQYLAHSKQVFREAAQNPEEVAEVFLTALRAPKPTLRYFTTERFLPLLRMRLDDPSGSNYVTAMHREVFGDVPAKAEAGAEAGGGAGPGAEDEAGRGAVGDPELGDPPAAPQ
Briefly: Inhibition of human 17β-HSD1 (conversion of [3H]-E1 to E2, HPLC radioflow detection). The conditions noted are these: for IC50: read-out: IC50 [nM] h17β-HSD1; for inhibition at 1 µM: read-out: % inhibition h17β-HSD1 @ 1 μM; for inhibition at 0.01 µM: read-out: % inhibition h17β-HSD1 @ 10 nM.

The next test concerns the target T4, mouse 17β-HSD2 (Mus musculus, UniProt P51658).
T4 construct: The pellet fractions containing the microsomal 17β-HSD2 were used for the determination of E1 formation; from tissue; host or cells: mouse liver, microsomal fraction
T4 sequence (P51658 1-381): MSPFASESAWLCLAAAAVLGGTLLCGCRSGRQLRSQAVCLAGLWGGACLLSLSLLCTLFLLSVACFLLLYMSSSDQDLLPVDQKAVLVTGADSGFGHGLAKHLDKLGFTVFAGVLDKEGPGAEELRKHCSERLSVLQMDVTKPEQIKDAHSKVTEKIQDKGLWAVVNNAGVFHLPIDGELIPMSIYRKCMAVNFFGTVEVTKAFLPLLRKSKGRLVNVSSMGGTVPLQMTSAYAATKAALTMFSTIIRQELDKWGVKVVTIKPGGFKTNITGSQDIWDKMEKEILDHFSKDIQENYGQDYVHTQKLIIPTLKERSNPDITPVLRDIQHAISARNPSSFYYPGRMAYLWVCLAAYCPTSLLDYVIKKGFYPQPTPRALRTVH
As to the kind of experiment: Inhibition of mouse 17β-HSD2 (liver microsomal fraction). The conditions noted are these: for % inhibition m17β-HSD2 @ 50 nM: 0.05 µM; for inhibition at 0.05 µM: read-out: % inhibition m17β-HSD2 @ 50 nM. (In general: Liver microsomes are a subcellular fraction often used to study metabolism.)

The mark [1] stands for this setting: read-out: % inhibition m17β-HSD1 @ 1 μM.
Setting [2] is: human placental cytosolic enzyme, E1 500 nM, NADH, Tables 1, 4-11.
The mark [3] stands for this setting: read-out: % inhibition m17β-HSD2 @ 1 μM.
Setting [4] is: read-out: Inhibition @ 1 μM m17β-HSD1.
Setting [5] is: read-out: Inhibition @ 1 μM m17β-HSD2.

SMILES strings stand for the structures. Like-named read-outs stand apart in the source and are kept apart here.

Description for human 17β-HSD2: Fresh human placenta was homogenized, and cytosolic fraction and microsomes were separated by differential centrifugation at 1,000 g, 10,000 g and 150,000 g.
(§1) The conversion rate was calculated after analysis of the resulting chromatograms according to the following equation: % conversion=[% E1/(% E1+% E2)]×100
Description for mouse 17β-HSD2: Microsomal 17β-HSD2 fractions were obtained from mouse or rat liver. Fresh liver tissues were processed as described for the human placental 17β-HSD2 preparation. The pellet fractions containing the microsomal 17β-HSD2 were used for the determination of E1 formation.
as §1

The inhibition is the drop in the measured response relative to a control, in per cent. In general, IC50 refers to the concentration that gives 50% inhibition. `Cc1c(O)cccc1C(=O)c1ccc(-c2ccc(F)cc2F)s1` [B, reference compound]: the values for the inhibition at 1 µM at mouse 17β-HSD1 (setting [1]) and at mouse 17β-HSD2 (setting [3]) were 5% and 18%, respectively. For the same compound, the values for the IC50 at human 17β-HSD2 and on human 17β-HSD1 (setting [2]) were 300 nM and 3430 nM, respectively.
Regarding `O=C(c1ccc(Br)s1)c1cc(F)c(F)c(O)c1F` [Compound 1g, (5-Bromo-thiophen-2-yl)-(2,4,5-trifluoro-3-hydroxy-phenyl)-methanone], the inhibition at 1 µM is 11% at mouse 17β-HSD1 (setting [1]), 11% on mouse 17β-HSD1 (setting [4]), 44% at mouse 17β-HSD2 (setting [3]) and 44% on mouse 17β-HSD2 (setting [5]). Besides, the IC50 was found to be 27 nM on human 17β-HSD2 and 130 nM on human 17β-HSD1 (setting [2]).
`O=C(c1ccc(-c2cccnc2)s1)c1c(F)ccc(O)c1F` [Compound 9, (2,6-Difluoro-3-hydroxy-phenyl)-(5-pyridin-3-yl-thiophen-2-yl)-methanone]: the inhibition at 1 µM at mouse 17β-HSD1 (setting [4]) was determined as 14%; at human 17β-HSD2, 64%; on human 17β-HSD1, 57%; on mouse 17β-HSD2 (setting [5]), 23%.
Regarding `COc1ccc(-c2sc(C(=O)c3c(F)ccc(O)c3F)cc2C)cc1Cl` [Compound 13, [5-(3-Chloro-4-methoxy-phenyl)-4-methyl-thiophen-2-yl]-(2,6-difluoro-3-hydroxy-phenyl)-methanone], the figures for the inhibition at 1 µM on mouse 17β-HSD1 (setting [4]) and on mouse 17β-HSD2 (setting [5]) were 25% and 65%, respectively. For the same compound, the IC50 is 52 nM on human 17β-HSD2 and 5.5 nM on human 17β-HSD1 (setting [2]).
For `O=C(c1ccc(-c2cc(F)c(OC(F)F)c(F)c2)s1)c1c(F)ccc(O)c1F` [Compound 17, (2,6-Difluoro-3-hydroxy-phenyl)-[5-(4-difluoromethoxy-3,5-difluoro-phenyl)-thiophen-2-yl]-methanone], in that order: 47%, 74%, 36 nM and 7 nM.
Take `O=C(c1ccc(-c2cccc(Cl)c2O)s1)c1c(F)ccc(O)c1F` [Compound 22, [5-(3-Chloro-2-hydroxy-phenyl)-thiophen-2-yl]-(2,6-difluoro-3-hydroxy-phenyl)-methanone]: the inhibition at 1 µM at mouse 17β-HSD1 (setting [4]) is 46%; on mouse 17β-HSD2 (setting [5]), 82%. Also, the IC50 came out at 29 nM at human 17β-HSD2 and 27 nM at human 17β-HSD1.
`COc1c(Cl)cc(-c2ccc(C(=O)c3c(F)ccc(O)c3F)s2)cc1CN1CCN(C(C)=O)CC1` [Compound 28, 1-(4-{3-Chloro-5-[5-(2,6-difluoro-3-hydroxy-benzoyl)-thiophen-2-yl]-2-methoxy-benzyl}-piperazin-1-yl)-ethanone]: the inhibition at 1 µM at mouse 17β-HSD1 (setting [4]) came out at 37%; on mouse 17β-HSD2 (setting [5]), 45%. Also, the IC50 at human 17β-HSD2 amounted to 21 nM; on human 17β-HSD1 it was 1.4 nM.
As to `COc1c(Cl)cc(-c2ccc(C(=O)c3c(F)ccc(OC(C)=O)c3F)s2)cc1Cn1ccnn1` [Compound 31a, Acetic acid 3-[5-(3-chloro-4-methoxy-5-[1,2,3]triazol-1-ylmethyl-phenyl)-thiophene-2-carbonyl]-2,4-difluoro-phenylester], the inhibition at 1 µM on mouse 17β-HSD1 (setting [4]) was 20%; at human 17β-HSD2, 32%; on human 17β-HSD1, 28%.
Consider `O=C(c1ccc(-c2cncc(F)c2)s1)c1cc(F)c(F)c(O)c1F` [Compound 39, [5-(5-Fluoro-pyridin-3-yl)-thiophen-2-yl]-(2,4,5-trifluoro-3-hydroxy-phenyl)-methanone], for which the inhibition at 1 µM on mouse 17β-HSD1 (setting [4]) was found to be 9%; on mouse 17β-HSD2 (setting [5]), 24%. In addition, the IC50 was 18 nM on human 17β-HSD2 and 59 nM on human 17β-HSD1 (setting [2]).
For `O=C(c1ccc(-c2ccc(O)c(F)c2)s1)c1cc(F)c(F)c(O)c1F` [Compound 42, (5-(3-Fluoro-4-hydroxyphenyl)thiophen-2-yl)(2,4,5-trifluoro-3-hydroxyphenyl)methanone], in that order: 46%, 84%, 3 nM and 2.5 nM.
Take `O=C(c1ccc(-c2ccc3cc[nH]c3c2)s1)c1cc(F)c(F)c(O)c1F` [Compound 43, (5-(1H-Indol-6-yl)thiophen-2-yl)(2,4,5-trifluoro-3-hydroxyphenyl)methanone]: the IC50 on mouse 17β-HSD1 (recombinant mouse enzyme, E1 10 nM, NADPH, read-out: IC50 m17β-HSD1) was found to be 1140 nM; at human 17β-HSD2, 7.5 nM; on human 17β-HSD1 (setting [2]) it was 28.8 nM; at mouse 17β-HSD2 (read-out: IC50 m17β-HSD2) it was 113 nM.
`O=C(c1ccc(-c2cc(Cl)c(O)c(Cl)c2)s1)c1cc(F)c(F)c(O)c1F` [Compound 49, (5-(3,5-Dichloro-4-hydroxyphenyl)thiophen-2-yl)(2,4,5-trifluoro-3-hydroxyphenyl)methanone]: the inhibition at 1 µM on mouse 17β-HSD1 (setting [4]) came to 13.8%. Also, the figures for the IC50 on human 17β-HSD2 and at human 17β-HSD1 (setting [2]) were 11.2 nM and 9.1 nM, respectively.
On to `Cc1cc(-c2ccc(C(=O)c3cc(F)cc(O)c3C)s2)cc(C)c1O` [Compound 71, (5-(4-Hydroxy-3,5-dimethylphenyl)thiophen-2-yl)(5-fluoro-3-hydroxy-2-methylphenyl)methanone], for which the results for the IC50 on human 17β-HSD2 and at human 17β-HSD1 (setting [2]) were 50 nM and 12.6 nM, respectively. Moreover, the “% inhibition m17β-HSD2 @ 50 nM” value at mouse 17β-HSD2 is reported as 79% @ 50 nM. Moreover, at mouse 17β-HSD2, the inhibition at 0.05 µM stood at 79%.
Taken in the same sequence, the figures for `Cc1cc(-c2ccc(C(=O)c3cc(F)c(F)c(O)c3C)s2)cc(C)c1O` [Compound 72, (4,5-Difluoro-3-hydroxy-2-methylphenyl)(5-(4-hydroxy-3,5-dimethylphenyl)thiophen-2-yl)methanone] were 159 nM, 44 nM, 22% @ 50 nM and 22%.
For `NS(=O)(=O)c1ccc(-c2ccc(C(=O)c3c(F)ccc(O)c3F)s2)cc1` [Compound 75, 4-(5-(2,6-Difluoro-3-hydroxybenzoyl)thiophen-2-yl)benzenesulfonamide], the results for the inhibition at 0.01 µM on human 17β-HSD2 and on human 17β-HSD1 were 54% and 18%, respectively. In addition, the inhibition at 0.05 µM on mouse 17β-HSD2 worked out at 10%.
Turning to `NS(=O)(=O)c1cccc(-c2ccc(C(=O)c3c(F)ccc(O)c3F)s2)c1` [Compound 76, 3-(5-(2,6-Difluoro-3-hydroxybenzoyl)thiophen-2-yl)benzenesulfonamide], the inhibition at 0.01 µM at human 17β-HSD2 came out at 26%; on human 17β-HSD1, 34%. In addition, the inhibition at 0.05 µM on mouse 17β-HSD2 was 1.8%.
Taken in the same sequence, the figures for `COc1c(Cl)cc(-c2ccc(C(=O)c3c(F)ccc(O)c3Cl)s2)cc1Cl` [Compound 78, (2-Chloro-6-fluoro-3-hydroxyphenyl)(5-(3,5-dichloro-4-methoxyphenyl)thiophen-2-yl)methanone] were 54%, 41% and 76%.
